Results: ChEMBL document CHEMBL5505990, “Novel aroyl guanidine anti-trypanosomal compounds that exert opposing effects on parasite energy metabolism” (Eur J Med Chem, 2024)
pIC50: −log10 of the molar value. Values belong to the molecule of their own block, whether it stands above or below them. Active and inactive are the calls of the source. The rule behind the calls is not given here.

How the values were obtained:
[1] = Selectivity ratio of IC50 for HEK293 cells to IC50 for Trypanosoma brucei brucei; format: toxicity; settings: human, read-out: Ratio IC50
[2] = Cytotoxicity against HEK293 cells; format: toxicity, cell-based; settings: human
[3] = test system: Trypanosoma brucei brucei; assay: Anti-trypanosomal activity against Trypanosoma brucei brucei; format: functional, organism-based
[4] = test system: Trypanosoma brucei brucei; assay: Anti-trypanosomal activity against Trypanosoma brucei brucei at 10 uM relative to control; format: functional
[5] = Cytotoxicity against HEK293 cells assessed as inhibition of cell viability at 83 uM relative to control; format: toxicity, cell-based; settings: human, read-out: INH
[6] = test system: Trypanosoma brucei brucei; assay: Upregulation of carnitine to acetyl-carnitine ratio in bloodstream Trypanosoma brucei brucei 427 assessed as increase in pyruvate level at 1 uM incubated for 5 hrs; format: functional
[7] = test system: Trypanosoma brucei brucei; assay: Downregulation of 6-phosphogluconate level in bloodstream Trypanosoma brucei brucei 427 assessed as increase in pyruvate level at 1 uM incubated for 5 hrs; format: functional
[8] = test system: Trypanosoma brucei brucei; assay: Effect on palmitoyl-CoA level in bloodstream Trypanosoma brucei brucei 427 assessed as increase in pyruvate level at 1 uM incubated for 5 hrs; format: functional
[9] = test system: Trypanosoma brucei brucei; assay: Disruption of nucleotide metabolism in bloodstream Trypanosoma brucei brucei 427 assessed as accumulation of NMP at 1 uM incubated for 5 hrs; format: functional, organism-based
[10] = test system: Trypanosoma brucei brucei; assay: Downregulation of NADPH level in bloodstream Trypanosoma brucei brucei 427 assessed as increase in pyruvate level at 1 uM incubated for 5 hrs; format: functional
[11] = test system: Trypanosoma brucei brucei; assay: Upregulation of glycolytic flux in bloodstream Trypanosoma brucei brucei 427 assessed as increase in pyruvate level at 1 uM incubated for 5 hrs; format: functional
[12] = test system: Trypanosoma brucei brucei; assay: Induction of glycolysis in bloodstream Trypanosoma brucei brucei 427 assessed as increase in glycerol level at 1 uM incubated for 5 hrs; format: functional
[13] = test system: Trypanosoma brucei brucei; assay: Effect on acetyl-CoA level in bloodstream Trypanosoma brucei brucei 427 assessed as increase in pyruvate level at 1 uM incubated for 5 hrs; format: functional
[14] = test system: Trypanosoma brucei brucei; assay: Induction of glycolysis in bloodstream Trypanosoma brucei brucei 427 assessed as increase in succinate level at 1 uM incubated for 5 hrs; format: functional
[15] = test system: Trypanosoma brucei brucei; assay: Effect on free carnitine level in bloodstream Trypanosoma brucei brucei 427 assessed as increase in pyruvate level at 1 uM incubated for 5 hrs; format: functional
[16] = test system: Trypanosoma brucei brucei; assay: Disruption of nucleotide metabolism in bloodstream Trypanosoma brucei brucei 427 assessed as accumulation of nucleosides at 1 uM incubated for 5 hrs; format: functional, organism-based
[17] = test system: Trypanosoma brucei brucei; assay: Effect on free CoA level in bloodstream Trypanosoma brucei brucei 427 assessed as increase in pyruvate level at 1 uM incubated for 5 hrs; format: functional
[18] = test system: Trypanosoma brucei brucei; assay: Disruption of nucleotide metabolism in bloodstream Trypanosoma brucei brucei 427 assessed as accumulation of NDP at 1 uM incubated for 5 hrs; format: functional, organism-based
[19] = test system: Trypanosoma brucei brucei; assay: Effect on stearoyl-CoA level in bloodstream Trypanosoma brucei brucei 427 assessed as increase in pyruvate level at 1 uM incubated for 5 hrs; format: functional
[20] = test system: Trypanosoma brucei brucei; assay: Disruption of nucleotide metabolism in bloodstream Trypanosoma brucei brucei 427 assessed as depletion of NTP at 1 uM incubated for 5 hrs; format: functional, organism-based
[21] = test system: Trypanosoma brucei brucei; assay: Effect on acetyl-carnitine level in bloodstream Trypanosoma brucei brucei 427 assessed as increase in pyruvate level at 1 uM incubated for 5 hrs; format: functional
[22] = test system: Trypanosoma brucei brucei; assay: Induction of glycolysis in bloodstream Trypanosoma brucei brucei 427 assessed as increase in pyruvate level at 1 uM incubated for 5 hrs; format: functional
[23] = test system: Trypanosoma brucei brucei; assay: Disruption of nucleotide metabolism in bloodstream Trypanosoma brucei brucei 427 assessed as accumulation of purine/pyrimidine base forms at 1 uM incubated for 5 hrs; format: functional, organism-based
[24] = test system: Trypanosoma brucei brucei; assay: Disruption of nucleotide metabolism in bloodstream Trypanosoma brucei brucei 427 assessed as depletion of GTP at 1 uM incubated for 5 hrs; format: functional, organism-based
[25] = test system: Trypanosoma brucei brucei; assay: Disruption of nucleotide metabolism in bloodstream Trypanosoma brucei brucei 427 assessed as depletion of deoxy-GTP at 1 uM incubated for 5 hrs; format: functional, organism-based
[26] = test system: Trypanosoma brucei brucei; assay: Disruption of nucleotide metabolism in bloodstream Trypanosoma brucei brucei 427 assessed as depletion of deoxy-ATP at 1 uM incubated for 5 hrs; format: functional, organism-based
[27] = test system: Trypanosoma brucei brucei; assay: Disruption of nucleotide metabolism in bloodstream Trypanosoma brucei brucei 427 assessed as depletion of CTP at 1 uM incubated for 5 hrs; format: functional, organism-based
[28] = test system: Trypanosoma brucei brucei; assay: Disruption of nucleotide metabolism in bloodstream Trypanosoma brucei brucei 427 assessed as depletion of UTP at 1 uM incubated for 5 hrs; format: functional, organism-based
[29] = test system: Trypanosoma brucei brucei; assay: Disruption of nucleotide metabolism in bloodstream Trypanosoma brucei brucei 427 assessed as depletion of deoxy-CTP at 1 uM incubated for 5 hrs; format: functional, organism-based
[30] = test system: Trypanosoma brucei brucei; assay: Disruption of nucleotide metabolism in bloodstream Trypanosoma brucei brucei 427 assessed as depletion of deoxy-UTP at 1 uM incubated for 5 hrs; format: functional, organism-based
[31] = test system: Trypanosoma brucei brucei; assay: Disruption of nucleotide metabolism in bloodstream Trypanosoma brucei brucei 427 assessed as depletion of ATP at 1 uM incubated for 5 hrs; format: functional, organism-based

SMILES: CCCc1ccccc1/N=C(\NCCN1CCOCC1)NC(=O)c1ccccc1
inhibition at 10 µM [4]: 72% | cytotoxicity at 83 µM [5]: 58%

SMILES: O=C(N/C(=N/c1ccccc1C(F)(F)F)NCCN1CCOCC1)c1ccccc1
inhibition at 10 µM [4]: 59% | cytotoxicity at 83 µM [5]: 63%

SMILES: CCc1ccccc1/N=C(\NCCN1CCOCC1)NC(=O)c1ccccc1Br
pIC50 [3]: < 5.00

SMILES: COc1ccccc1/N=C(\NCCN1CCOCC1)NC(=O)c1ccccc1
pIC50 [3]: < 5.00

SMILES: CCc1ccccc1/N=C(\NCCN1CCOCC1)NC(=O)c1ccccc1Cl
pIC50 [3]: < 5.00

SMILES: N#Cc1ccccc1/N=C(\NCCN1CCOCC1)NC(=O)c1ccccc1
pIC50 [3]: < 5.00

SMILES: O=C(N/C(=N/c1ccccc1F)NCCN1CCOCC1)c1ccccc1
pIC50 [3]: < 5.00

SMILES: Cc1ccccc1/N=C(\NCCN1CCOCC1)NC(=O)c1ccccc1
Activity [6]: inactive | Activity [7]: inactive | Activity [8]: inactive | Activity [9]: inactive | inhibition at 10 µM [4]: 75% | Activity [10]: inactive | Activity [11]: inactive | Activity [12]: inactive | Activity [13]: Active | Activity [14]: inactive | Activity [15]: inactive | Activity [16]: inactive | Activity [17]: inactive | Activity [18]: inactive | Activity [19]: inactive | pIC50 [2]: < 4.08 | Activity [20]: inactive | Activity [21]: inactive | Activity [22]: inactive | Activity [23]: inactive

SMILES: CCc1ccccc1/N=C(\NCCN1CCOCC1)NC(=O)c1ccc(C(C)C)cc1
cytotoxicity at 83 µM [5]: 52% | pIC50 [3]: 5.00

SMILES: CCc1ccccc1/N=C(\NCCN1CCCC1)NC(=O)c1ccccc1
pIC50 [3]: < 5.00

SMILES: O=C(N/C(=N/c1ccccc1Br)NCCN1CCOCC1)c1ccccc1
Activity [6]: Active | Activity [7]: Active | Activity [8]: Active | Activity [9]: Active | Activity [24]: Active | Activity [10]: Active | Activity [11]: Active | Activity [25]: Active | Activity [12]: Active | Activity [26]: Active | Activity [13]: inactive | Activity [14]: Active | Activity [27]: Active | Activity [28]: Active | selectivity ratio [1]: > 19 | Activity [15]: Active | Activity [16]: Active | Activity [17]: Active | Activity [18]: Active | Activity [29]: Active | Activity [19]: Active | pIC50 [2]: < 4.08 | Activity [21]: Active | Activity [30]: Active | pIC50 [3]: 5.38 | Activity [31]: Active | Activity [22]: Active | Activity [23]: Active

SMILES: CCc1ccccc1/N=C(\NCCN(C)C)NC(=O)c1ccccc1
pIC50 [3]: < 5.00

SMILES: O=C(N/C(=N/c1ccccc1)NCCN1CCOCC1)c1ccccc1
pIC50 [3]: < 5.00

SMILES: CCc1ccccc1/N=C(\NCCCN1CCOCC1)NC(=O)c1ccccc1
pIC50 [3]: < 5.00

SMILES: CCCc1ccc(C(=O)N/C(=N/c2ccccc2CC)NCCN2CCOCC2)cc1
selectivity ratio [1]: > 9 | pIC50 [2]: < 4.08 | pIC50 [3]: 5.05

SMILES: CCc1ccccc1/N=C(\NCCN1CCOCC1)NC(=O)c1ccc(OC)cc1
selectivity ratio [1]: > 8.8 | pIC50 [2]: < 4.08 | pIC50 [3]: 5.03

SMILES: CC(C)c1ccccc1/N=C(\NCCN1CCOCC1)NC(=O)c1ccccc1
inhibition at 10 µM [4]: 75% | cytotoxicity at 83 µM [5]: 63%

SMILES: O=C(N/C(=N/c1ccccc1Cl)NCCN1CCOCC1)c1ccccc1
selectivity ratio [1]: > 11 | pIC50 [2]: < 4.08 | pIC50 [3]: 5.12

SMILES: CCc1ccccc1/N=C(\NCCN1CCCCC1)NC(=O)c1ccccc1
pIC50 [3]: < 5.00

SMILES: CCc1ccccc1/N=C(\NCCN1CCOCC1)NC(=O)c1ccccc1C
pIC50 [3]: < 5.00

SMILES: CCc1ccccc1/N=C(\NCCN1CCN(C)CC1)NC(=O)c1ccccc1
pIC50 [3]: < 5.00

SMILES: CCc1ccccc1/N=C(\NCCN1CCOCC1)NC(=O)c1ccccc1OC
pIC50 [3]: < 5.00

Continued, in another order:

pIC50 [3]: 5.06
SMILES: CCc1ccccc1/N=C(\NCCN1CCOCC1)NC(=O)c1ccc(Br)cc1
selectivity ratio [1]: > 9.5 | pIC50 [2]: < 4.08

pIC50 [3]: 5.89
SMILES: CCc1ccccc1/N=C(\NCCN1CCOCC1)NC(=O)c1cccc(C)c1
selectivity ratio [1]: > 64 | pIC50 [2]: < 4.08

pIC50 [3]: 5.15
SMILES: CCc1ccccc1/N=C(\NCCN1CCOCC1)NC(=O)c1ccccc1F
selectivity ratio [1]: 1 | pIC50 [2]: < 5.00

pIC50 [3]: < 4.08
SMILES: CCc1ccccc1/N=C(\NCCN1CCOCC1)NC(=O)c1cccc(C(C)=O)c1
selectivity ratio [1]: 1 | pIC50 [2]: < 4.08

pIC50 [3]: 5.80
SMILES: CCc1ccccc1/N=C(\NCCN1CCOCC1)NC(=O)c1cccc(OC)c1
selectivity ratio [1]: > 52 | pIC50 [2]: < 4.08

pIC50 [3]: < 4.08
SMILES: CCc1ccccc1/N=C(\NCCN1CCOCC1)NC(=O)c1cccc(O)c1
selectivity ratio [1]: 1 | pIC50 [2]: < 4.08

pIC50 [3]: 5.80
SMILES: CCc1ccccc1/N=C(\NCCN1CCOCC1)NC(=O)c1cccc(F)c1
selectivity ratio [1]: > 52 | pIC50 [2]: < 4.08

pIC50 [3]: 5.74
SMILES: CCc1ccccc1/N=C(\NCCN1CCOCC1)NC(=O)c1ccc(F)cc1
Activity [6]: inactive | Activity [7]: inactive | Activity [8]: inactive | Activity [9]: inactive | Activity [10]: inactive | Activity [11]: inactive | Activity [12]: inactive | Activity [13]: Active | Activity [14]: inactive | selectivity ratio [1]: 46 | Activity [15]: inactive | Activity [16]: inactive | Activity [17]: inactive | Activity [18]: inactive | Activity [19]: inactive | pIC50 [2]: < 4.08 | Activity [20]: inactive | Activity [21]: inactive | Activity [22]: inactive | Activity [23]: inactive

pIC50 [3]: 5.80
SMILES: CCc1ccccc1/N=C(\NCCN1CCOCC1)NC(=O)c1ccc(Cl)cc1
selectivity ratio [1]: > 52 | pIC50 [2]: < 4.08

pIC50 [3]: 5.74
SMILES: CCc1ccccc1/N=C(\NCCN1CCOCC1)NC(=O)c1ccc(F)c(F)c1
Activity [6]: Active | Activity [7]: Active | Activity [8]: Active | Activity [24]: Active | Activity [10]: Active | Activity [11]: Active | Activity [25]: Active | Activity [12]: Active | Activity [26]: Active | Activity [13]: inactive | cytotoxicity at 83 µM [5]: 86% | Activity [14]: Active | Activity [27]: Active | Activity [28]: Active | Activity [15]: Active | Activity [17]: Active | Activity [29]: Active | Activity [19]: Active | Activity [21]: Active | Activity [30]: Active | Activity [31]: Active | Activity [22]: Active

pIC50 [3]: 5.62
SMILES: CCc1ccccc1/N=C(\NCCN1CCOCC1)NC(=O)c1ccc(F)c(C)c1
cytotoxicity at 83 µM [5]: 101%

pIC50 [3]: 6.12
SMILES: CCc1ccccc1/N=C(\NCCN1CCOCC1)NC(=O)c1ccc(F)c(OC)c1
cytotoxicity at 83 µM [5]: 94%
